Reference: US6358885B1, “Substituted phenylheterocyclic herbicides” (Mississippi State University, priority 1992, dated 2002)

Assays:
Assay in all cases: Test B preemergence/postemergence greenhouse plant response rating 0 to 10
[1] = tested on: barley; format: in vivo, Hordeum vulgare; conditions: for Plant response rating, Barley: 0 to 10 scale
In short: (§1)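 Test chemicals were sprayed onto freshly planted seed and, concurrently, onto young plants between the one and four leaf stage. After a twelve- to sixteen-day greenhouse period, each species was visually compared with untreated controls.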

[2] = tested on: rape; format: in vivo, Brassica napus; conditions: for Plant response rating, Rape: 0 to 10 scale
In short: as §1

[3] = tested on: sugar beet; format: in vivo, Beta vulgaris; conditions: for Plant response rating, Sugar beet: 0 to 10 scale
In short: as §1

[4] = tested on: wheat; format: in vivo, Triticum aestivum; conditions: for Plant response rating, Wheat: 0 to 10 scale
In short: as §1

[5] = tested on: barnyardgrass; format: in vivo, Echinochloa crus-galli; conditions: for Plant response rating, Barnyardgrass: 0 to 10 scale
In short: as §1

[6] = tested on: rice; format: in vivo, Oryza sativa; conditions: for Plant response rating, Rice: 0 to 10 scale
In short: as §1

[7] = tested on: chickweed; format: in vivo, Stellaria media; conditions: for Plant response rating, Chickweed: 0 to 10 scale
In short: as §1

[8] = tested on: wild buckwheat; format: in vivo, Polygonum convolvulus; conditions: for Plant response rating, Wild buckwheat: 0 to 10 scale
In short: as §1

[9] = tested on: velvetleaf; format: in vivo, Abutilon theophrasti; conditions: for Plant response rating, Velvetleaf: 0 to 10 scale
In short: as §1

[10] = tested on: blackgrass; format: in vivo, Alopecurus myosuroides; conditions: for Plant response rating, Blackgrass: 0 to 10 scale
In short: as §1

[11] = tested on: giant foxtail; format: in vivo, Setaria faberii; conditions: for Plant response rating, Giant foxtail: 0 to 10 scale
In short: as §1

[12] = tested on: cotton; format: in vivo, Gossypium hirsutum; conditions: for Plant response rating, Cotton: 0 to 10 scale
In short: as §1

[13] = tested on: soybean; format: in vivo, Glycine max; conditions: for Plant response rating, Soybean: 0 to 10 scale
In short: as §1

[14] = tested on: sorghum; format: in vivo, Sorghum bicolor; conditions: for Plant response rating, Sorghum: 0 to 10 scale
In short: as §1

[15] = tested on: bedstraw; format: in vivo, Galium aparine; conditions: for Plant response rating, Bedstraw: 0 to 10 scale
In short: as §1

[16] = tested on: cocklebur; format: in vivo, Xanthium pensylvanicum; conditions: for Plant response rating, Cocklebur: 0 to 10 scale
In short: as §1

[17] = tested on: purple nutsedge; format: in vivo, Cyperus rotundus; conditions: for Plant response rating, Nutsedge: 0 to 10 scale
In short: as §1

[18] = tested on: lambsquarters; format: in vivo, Chenopodium album; conditions: for Plant response rating, Lambsquarter: 0 to 10 scale
In short: as §1

[19] = tested on: cheatgrass; format: in vivo, Bromus secalinus; conditions: for Plant response rating, Cheatgrass: 0 to 10 scale
In short: as §1

[20] = tested on: wild oat; format: in vivo, Avena fatua; conditions: for Plant response rating, Wild oat: 0 to 10 scale
In short: as §1

[21] = tested on: morningglory; format: in vivo, Ipomoea hederacea; conditions: for Plant response rating, Morningglory: 0 to 10 scale
In short: as §1

[22] = tested on: corn; format: in vivo, Zea mays; conditions: for Plant response rating, Corn: 0 to 10 scale
In short: as §1

[23] = tested on: crabgrass; format: in vivo, Digitaria spp.; conditions: for Plant response rating, Crabgrass: 0 to 10 scale
In short: as §1

In the case of `C#CC(C)Oc1cc(-c2nn3c(c2Cl)CCCC3)c(Cl)cc1Cl` (centres unmarked) [Compound 74], the “Plant response rating, Barley” value ([1]; POSTEMERGENCE, Rate 50 g/ha) is reported as 2, the “Plant response rating, Barley” value ([1]; PREEMERGENCE, Rate 50 g/ha) is reported as 0 and the “Plant response rating (0 to 10 scale), Barley” value ([1]; PREEMERGENCE, Rate 200 g/ha) is reported as 0. For the same compound, the “Plant response rating, Barley” value ([1]; Rate 200 g/ha, POSTEMERGENCE) was 4, the “Plant response rating, Rape” value ([2]; POSTEMERGENCE, Rate 50 g/ha) was 10 and the “Plant response rating, Rape” value ([2]; PREEMERGENCE, Rate 50 g/ha) was 0. For the same compound, the “Plant response rating (0 to 10 scale), Rape” value ([2]; PREEMERGENCE, Rate 200 g/ha) was 7, the “Plant response rating, Rape” value ([2]; Rate 200 g/ha, POSTEMERGENCE) was 10 and the “Plant response rating, Sugar beet” value ([3]; POSTEMERGENCE, Rate 50 g/ha) was 10. For the same compound, the “Plant response rating, Sugar beet” value ([3]; PREEMERGENCE, Rate 50 g/ha) was 0, the “Plant response rating (0 to 10 scale), Sugar beet” value ([3]; PREEMERGENCE, Rate 200 g/ha) was 10 and the “Plant response rating, Sugar beet” value ([3]; Rate 200 g/ha, POSTEMERGENCE) was 10. The “Plant response rating, Wheat” value ([4]; POSTEMERGENCE, Rate 50 g/ha) was 4, the “Plant response rating, Wheat” value ([4]; PREEMERGENCE, Rate 50 g/ha) was 0 and the “Plant response rating (0 to 10 scale), Wheat” value ([4]; PREEMERGENCE, Rate 200 g/ha) was 0. For the same compound, the “Plant response rating, Wheat” value ([4]; Rate 200 g/ha, POSTEMERGENCE) was 5, the “Plant response rating, Barnyardgrass” value ([5]; POSTEMERGENCE, Rate 50 g/ha) was 5 and the “Plant response rating, Barnyardgrass” value ([5]; PREEMERGENCE, Rate 50 g/ha) was 0. For the same compound, the “Plant response rating (0 to 10 scale), Barnyardgrass” value ([5]; PREEMERGENCE, Rate 200 g/ha) was 1, the “Plant response rating, Barnyardgrass” value ([5]; Rate 200 g/ha, POSTEMERGENCE) was 7 and the “Plant response rating, Rice” value ([6]; POSTEMERGENCE, Rate 50 g/ha) was 3. The “Plant response rating, Rice” value ([6]; PREEMERGENCE, Rate 50 g/ha) was 0, the “Plant response rating (0 to 10 scale), Rice” value ([6]; PREEMERGENCE, Rate 200 g/ha) was 0 and the “Plant response rating, Rice” value ([6]; Rate 200 g/ha, POSTEMERGENCE) was 6. The “Plant response rating, Chickweed” value ([7]; POSTEMERGENCE, Rate 50 g/ha) was 6, the “Plant response rating, Chickweed” value ([7]; PREEMERGENCE, Rate 50 g/ha) was 0 and the “Plant response rating (0 to 10 scale), Chickweed” value ([7]; PREEMERGENCE, Rate 200 g/ha) was 5. For the same compound, the “Plant response rating, Chickweed” value ([7]; Rate 200 g/ha, POSTEMERGENCE) was 7, the “Plant response rating, Wild buckwheat” value ([8]; POSTEMERGENCE, Rate 50 g/ha) was 10 and the “Plant response rating, Wild buckwheat” value ([8]; PREEMERGENCE, Rate 50 g/ha) was 5. For the same compound, the “Plant response rating (0 to 10 scale), Wild buckwheat” value ([8]; PREEMERGENCE, Rate 200 g/ha) was 9, the “Plant response rating, Wild buckwheat” value ([8]; Rate 200 g/ha, POSTEMERGENCE) was 10 and the “Plant response rating, Velvetleaf” value ([9]; POSTEMERGENCE, Rate 50 g/ha) was 10. The “Plant response rating, Velvetleaf” value ([9]; PREEMERGENCE, Rate 50 g/ha) was 5, the “Plant response rating (0 to 10 scale), Velvetleaf” value ([9]; PREEMERGENCE, Rate 200 g/ha) was 9 and the “Plant response rating, Velvetleaf” value ([9]; Rate 200 g/ha, POSTEMERGENCE) was 10. For the same compound, the “Plant response rating, Blackgrass” value ([10]; POSTEMERGENCE, Rate 50 g/ha) was 6, the “Plant response rating, Blackgrass” value ([10]; PREEMERGENCE, Rate 50 g/ha) was 0 and the “Plant response rating (0 to 10 scale), Blackgrass” value ([10]; PREEMERGENCE, Rate 200 g/ha) was 8. For the same compound, the “Plant response rating, Blackgrass” value ([10]; Rate 200 g/ha, POSTEMERGENCE) was 6, the “Plant response rating, Giant foxtail” value ([11]; POSTEMERGENCE, Rate 50 g/ha) was 5 and the “Plant response rating, Giant foxtail” value ([11]; PREEMERGENCE, Rate 50 g/ha) was 2. The “Plant response rating (0 to 10 scale), Giant foxtail” value ([11]; PREEMERGENCE, Rate 200 g/ha) was 6, the “Plant response rating, Giant foxtail” value ([11]; Rate 200 g/ha, POSTEMERGENCE) was 5 and the “Plant response rating, Cotton” value ([12]; POSTEMERGENCE, Rate 50 g/ha) was 10. The “Plant response rating, Cotton” value ([12]; PREEMERGENCE, Rate 50 g/ha) was 0, the “Plant response rating (0 to 10 scale), Cotton” value ([12]; PREEMERGENCE, Rate 200 g/ha) was 0 and the “Plant response rating, Cotton” value ([12]; Rate 200 g/ha, POSTEMERGENCE) was 10. For the same compound, the “Plant response rating, Soybean” value ([13]; POSTEMERGENCE, Rate 50 g/ha) was 6, the “Plant response rating, Soybean” value ([13]; PREEMERGENCE, Rate 50 g/ha) was 0 and the “Plant response rating (0 to 10 scale), Soybean” value ([13]; PREEMERGENCE, Rate 200 g/ha) was 0. For the same compound, the “Plant response rating, Soybean” value ([13]; Rate 200 g/ha, POSTEMERGENCE) was 6, the “Plant response rating, Sorghum” value ([14]; POSTEMERGENCE, Rate 50 g/ha) was 5 and the “Plant response rating, Sorghum” value ([14]; PREEMERGENCE, Rate 50 g/ha) was 0. For the same compound, the “Plant response rating (0 to 10 scale), Sorghum” value ([14]; PREEMERGENCE, Rate 200 g/ha) was 0, the “Plant response rating, Sorghum” value ([14]; Rate 200 g/ha, POSTEMERGENCE) was 7 and the “Plant response rating, Bedstraw” value ([15]; POSTEMERGENCE, Rate 50 g/ha) was 8. The “Plant response rating, Bedstraw” value ([15]; PREEMERGENCE, Rate 50 g/ha) was 0, the “Plant response rating (0 to 10 scale), Bedstraw” value ([15]; PREEMERGENCE, Rate 200 g/ha) was 9 and the “Plant response rating, Bedstraw” value ([15]; Rate 200 g/ha, POSTEMERGENCE) was 9. The “Plant response rating, Cocklebur” value ([16]; POSTEMERGENCE, Rate 50 g/ha) was 9, the “Plant response rating, Cocklebur” value ([16]; PREEMERGENCE, Rate 50 g/ha) was 0 and the “Plant response rating (0 to 10 scale), Cocklebur” value ([16]; PREEMERGENCE, Rate 200 g/ha) was 0. For the same compound, the “Plant response rating, Cocklebur” value ([16]; Rate 200 g/ha, POSTEMERGENCE) was 10, the “Plant response rating, Nutsedge” value ([17]; POSTEMERGENCE, Rate 50 g/ha) was 2 and the “Plant response rating, Nutsedge” value ([17]; PREEMERGENCE, Rate 50 g/ha) was 0. The “Plant response rating (0 to 10 scale), Nutsedge” value ([17]; PREEMERGENCE, Rate 200 g/ha) was 0, the “Plant response rating, Nutsedge” value ([17]; Rate 200 g/ha, POSTEMERGENCE) was 2 and the “Plant response rating, Lambsquarter” value ([18]; POSTEMERGENCE, Rate 50 g/ha) was 9. The “Plant response rating, Lambsquarter” value ([18]; PREEMERGENCE, Rate 50 g/ha) was 9, the “Plant response rating (0 to 10 scale), Lambsquarter” value ([18]; PREEMERGENCE, Rate 200 g/ha) was 10 and the “Plant response rating, Lambsquarter” value ([18]; Rate 200 g/ha, POSTEMERGENCE) was 10. For the same compound, the “Plant response rating, Cheatgrass” value ([19]; POSTEMERGENCE, Rate 50 g/ha) was 6, the “Plant response rating, Cheatgrass” value ([19]; PREEMERGENCE, Rate 50 g/ha) was 4 and the “Plant response rating (0 to 10 scale), Cheatgrass” value ([19]; PREEMERGENCE, Rate 200 g/ha) was 4. For the same compound, the “Plant response rating, Cheatgrass” value ([19]; Rate 200 g/ha, POSTEMERGENCE) was 6, the “Plant response rating, Wild oat” value ([20]; POSTEMERGENCE, Rate 50 g/ha) was 4 and the “Plant response rating, Wild oat” value ([20]; PREEMERGENCE, Rate 50 g/ha) was 0. For the same compound, the “Plant response rating (0 to 10 scale), Wild oat” value ([20]; PREEMERGENCE, Rate 200 g/ha) was 3, the “Plant response rating, Wild oat” value ([20]; Rate 200 g/ha, POSTEMERGENCE) was 4 and the “Plant response rating, Morningglory” value ([21]; POSTEMERGENCE, Rate 50 g/ha) was 9. For the same compound, the “Plant response rating, Morningglory” value ([21]; PREEMERGENCE, Rate 50 g/ha) was 0, the “Plant response rating (0 to 10 scale), Morningglory” value ([21]; PREEMERGENCE, Rate 200 g/ha) was 0 and the “Plant response rating, Morningglory” value ([21]; Rate 200 g/ha, POSTEMERGENCE) was 9. The “Plant response rating, Corn” value ([22]; POSTEMERGENCE, Rate 50 g/ha) was 2, the “Plant response rating, Corn” value ([22]; PREEMERGENCE, Rate 50 g/ha) was 0 and the “Plant response rating (0 to 10 scale), Corn” value ([22]; PREEMERGENCE, Rate 200 g/ha) was 0. For the same compound, the “Plant response rating, Corn” value ([22]; Rate 200 g/ha, POSTEMERGENCE) was 4, the “Plant response rating, Crabgrass” value ([23]; POSTEMERGENCE, Rate 50 g/ha) was 3 and the “Plant response rating, Crabgrass” value ([23]; PREEMERGENCE, Rate 50 g/ha) was 2. For the same compound, the “Plant response rating (0 to 10 scale), Crabgrass” value ([23]; PREEMERGENCE, Rate 200 g/ha) was 6 and the “Plant response rating, Crabgrass” value ([23]; Rate 200 g/ha, POSTEMERGENCE) was 5.
